# Experimental data: article PMC6390583 (BMC rheumatology, 2018)
# Assays:
# [1] = test system: reticulocyte deployment; assay: Epo induced reticulocyte deployment assay; assay type: in vivo; conditions: rat, Epo challenge, highest concentration tested
# Procedure: Naïve male Lewis rats were injected intravenously with either PBS or 1000 IU of epoetin α (Procrit®, Janssen Products, LP, Horsham, PA) for two consecutive days. Reticulocytes were measured on day 4 by flow cytometry using thiozole orange as a dye as previously described.
# [2] = test system: IL-7 driven pSTAT5; assay: Clinical ex vivo IL-7 stimulation of whole blood, pSTAT5; assay type: in vivo; conditions: healthy volunteers, 5 mg tofacitinib, 1 h post dose
# Procedure: (§1) Recombinant human IL-6 (400 ng/ml), or IL-7 (400 ng/ml), (R&D Systems, Minneapolis, MN) was added to blood and incubated for 10 min at 37°C. Surface antibodies were added (CD14-APC, CD3-fluorescein isothiocyanate [FITC]; BD Biosciences, San Jose, CA) and incubated on ice for an additional 20 min. Samples were lysed (Lyse/Fix, BD Biosciences, San Jose, CA) and incubated for 10 min at 37°C. Samples were washed and stored at − 70°C. For intracellular staining, samples were thawed, washed, and resuspended in BD Perm buffer III (BD Biosciences, San Jose, CA) on ice for 30 min. Samples were washed and stained with pSTAT5-PE or pSTAT3-PE (BD Biosciences, San Jose, CA) for 60 min at room temperature and then analyzed immediately on a FACSCalibur. Geometric means were determined using FlowJo analysis software.
# [3] = test system: IL-6 induced pSTAT3; assay: Clinical ex vivo IL-6 stimulation of whole blood, pSTAT3; assay type: in vivo, healthy volunteers; conditions: healthy volunteers, 5 mg of tofacitinib, 1 h post dose
# Procedure: as §1
# [4] = test system: adjuvant induced arthritis; assay: Rat adjuvant-induced arthritis (AIA) model; assay type: in vivo
# [5] = test system: CD3-/CD16+/CD56+ NK cells; assay: Circulating NK cell analysis after 14 days dosing; assay type: in vivo, rat
# Procedure: Blood was collected and stained using BD MultiTest IMK kit (BD Biosciences, San Jose, CA) per manufacturer’s instructions. NK cell numbers were determined by using FlowJo analysis software (FlowJo, LLC, Ashland, OR) and by examining the CD3^−/CD16^+/CD56^+ population. The number of cells/μL was calculated by using the following equation: (# events in cell population/# of events in absolute bead count region) × (# beads per test/test volume), with the value beads per test indicated on the BD Trucount tube label.
compound,measurement,setting,value
"C[C@@H]1CCN(C(=O)CC#N)C[C@@H]1N(C)c1ncnc2[nH]ccc12 [tofacitinib, reference compound]",Maximal inhibition of reticulocyte deployment,[1],> 40%
same,Inhibition of IL-7 driven pSTAT5,[2],~ 70%
same,Inhibition of IL-6 induced pSTAT3,[3],~ 50%
same,Reduction in paw swelling at clinical AUC exposures,[4]; exposure associated with 10 mg BID of tofacitinib,~ 60%
same,"AUC60, AUC0-12 drug concentration necessary to achieve 60% inhibition of paw swelling",[4]; oral BID,1205 ng·h/mL
same,Effect on paw swelling,"[4]; oral, dosed from day 7",dose-responsive efficacy
same,AUC60 for decrease of circulating NK cell numbers,[5]; naive rats dosed orally for 14 days,1230 ng·h/mL
same,Decrease in circulating NK cells at AUC60,"[5]; rat, at AUC60 of paw swelling",70%
